The values below come from patent US20250084056A1, “SUBSTITUTED OXOISOINDOLINYL PIPERIDINE-2,6-DIONE COMPOUNDS” (BRISTOL-MYERS SQUIBB COMPANY, priority 2023, published 2025).

What all share (format): cell-based
For one experiment, the target named is GSPT1 (Homo sapiens, UniProt P15170+Q96SW2). In words: GSPT1 Cellular Degradation Assay (DF15-GSPT1-ePL). On the set-up: expressed in transfected cells. The conditions noted are these: DF15-GSPT1-ePL cells, 20 hours. An outline of the steps:
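DC50 and Dmax were derived from chemiluminescence, with 75% response set by the reference compound at […]. Readout was ePL enzyme-fragment complementation in a DF15 line expressing chimeric GSPT1. Cells were exposed to compound for 20 h at 37 °C in RPMI 1640 with 10% FBS, cooled 30 min, then lysed with substrate for 60 min.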

The target in a further experiment is Cyclin E1 (Homo sapiens, UniProt P24864+Q96SW2). As to the kind of experiment: Cyclin E1 Cellular Degradation Assay (MSD). The following applies: for DC50 / Dmax: Cyclin E1 cellular degradation; for Dmax: maximum degradation; for Ratio of GSPT1 DC50/Cyclin E1 DC50: selectivity for degradation of Cyclin E1 over GSPT1. On the set-up: endogenous in cells; host or cells: OVCAR3. The method in brief:
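Cyclin E1 remaining after 24 h compound exposure of OVCAR3 cells was quantified in lysates by electrochemiluminescent MSD sandwich assay. DC50 (50% response concentration) and Dmax (maximum response) were calculated, with 110% response set by a reference compound at […].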

Another experiment has as its system Phospho-Rb (Ser807/811). In words: Phospho-Retinoblastoma (pRB) Cellular Assay. The following applies: Homo sapiens, OVCAR-3, NIH OVCAR3 cells, 24 hours; for IC50: concentration giving 50% response; for Emax: maximum response, reference compound at 10 μM = 100%, read-out: pRB Ymax. An outline of the steps:
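Phospho-Rb (Ser807/811) kit read-out on EnVision after lysis (≥4 h, room temperature, dark) of OVCAR3 cells exposed to compound dilutions for 24 h. IC50 and maximum response Ymax are relative to a 10 μM reference compound defining 100%.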

GSPT1, sequence (P15170 whole entry, the tested form may be a part): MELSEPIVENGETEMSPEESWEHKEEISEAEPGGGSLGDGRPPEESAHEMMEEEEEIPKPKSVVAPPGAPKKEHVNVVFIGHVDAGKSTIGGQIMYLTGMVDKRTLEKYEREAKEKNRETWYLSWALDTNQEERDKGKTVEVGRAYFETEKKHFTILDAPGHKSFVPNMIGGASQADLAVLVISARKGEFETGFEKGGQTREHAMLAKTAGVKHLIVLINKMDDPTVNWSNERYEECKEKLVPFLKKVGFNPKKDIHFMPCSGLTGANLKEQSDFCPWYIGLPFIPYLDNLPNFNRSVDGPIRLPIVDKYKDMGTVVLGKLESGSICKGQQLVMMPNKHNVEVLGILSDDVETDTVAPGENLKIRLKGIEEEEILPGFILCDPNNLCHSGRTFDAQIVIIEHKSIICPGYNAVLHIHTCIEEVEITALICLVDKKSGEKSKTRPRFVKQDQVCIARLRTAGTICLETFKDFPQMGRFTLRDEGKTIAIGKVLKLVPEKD
GSPT1, sequence (Q96SW2 whole entry, the tested form may be a part): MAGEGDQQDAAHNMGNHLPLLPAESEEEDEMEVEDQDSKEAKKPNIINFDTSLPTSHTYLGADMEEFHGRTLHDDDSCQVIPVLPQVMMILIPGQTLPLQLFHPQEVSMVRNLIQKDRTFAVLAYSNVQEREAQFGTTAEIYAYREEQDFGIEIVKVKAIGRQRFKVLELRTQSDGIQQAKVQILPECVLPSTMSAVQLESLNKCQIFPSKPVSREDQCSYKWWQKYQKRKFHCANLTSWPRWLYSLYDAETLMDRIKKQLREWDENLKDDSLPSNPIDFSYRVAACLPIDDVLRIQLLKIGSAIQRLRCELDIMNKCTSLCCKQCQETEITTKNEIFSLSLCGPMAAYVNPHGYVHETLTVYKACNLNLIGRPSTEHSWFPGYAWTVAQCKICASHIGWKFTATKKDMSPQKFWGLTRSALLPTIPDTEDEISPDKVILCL
GSPT1, sequence (Q16531 whole entry partner, the tested form may be a part): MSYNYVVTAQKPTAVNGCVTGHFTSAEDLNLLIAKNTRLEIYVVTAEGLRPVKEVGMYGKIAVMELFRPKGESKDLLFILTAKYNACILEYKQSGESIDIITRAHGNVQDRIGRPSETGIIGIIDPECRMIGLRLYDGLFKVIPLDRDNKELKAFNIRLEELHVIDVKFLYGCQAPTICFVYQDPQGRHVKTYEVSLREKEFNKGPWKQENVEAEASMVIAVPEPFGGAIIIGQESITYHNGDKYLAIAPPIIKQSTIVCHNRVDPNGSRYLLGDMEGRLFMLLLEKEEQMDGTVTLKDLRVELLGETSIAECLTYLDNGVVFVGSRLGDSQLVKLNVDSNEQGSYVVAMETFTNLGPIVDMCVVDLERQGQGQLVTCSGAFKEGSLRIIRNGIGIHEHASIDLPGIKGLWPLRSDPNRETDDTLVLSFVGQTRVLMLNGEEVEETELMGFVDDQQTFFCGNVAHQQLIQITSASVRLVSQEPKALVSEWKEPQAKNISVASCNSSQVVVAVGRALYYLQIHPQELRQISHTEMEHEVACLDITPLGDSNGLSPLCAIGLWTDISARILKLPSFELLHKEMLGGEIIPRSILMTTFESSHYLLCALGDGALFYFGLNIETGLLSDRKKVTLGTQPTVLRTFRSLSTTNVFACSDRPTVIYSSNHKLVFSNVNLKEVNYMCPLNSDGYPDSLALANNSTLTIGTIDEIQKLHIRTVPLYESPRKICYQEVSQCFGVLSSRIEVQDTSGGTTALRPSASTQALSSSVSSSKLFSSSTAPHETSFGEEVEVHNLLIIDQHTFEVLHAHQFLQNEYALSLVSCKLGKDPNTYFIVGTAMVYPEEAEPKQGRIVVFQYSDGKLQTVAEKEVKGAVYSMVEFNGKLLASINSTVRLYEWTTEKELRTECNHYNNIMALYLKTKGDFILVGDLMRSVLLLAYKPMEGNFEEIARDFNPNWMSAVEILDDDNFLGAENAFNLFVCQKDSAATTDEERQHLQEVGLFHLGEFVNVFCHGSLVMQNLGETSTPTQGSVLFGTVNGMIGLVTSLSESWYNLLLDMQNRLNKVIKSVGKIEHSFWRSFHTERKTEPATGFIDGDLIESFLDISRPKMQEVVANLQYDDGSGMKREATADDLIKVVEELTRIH
Cyclin E1, sequence (P24864 whole entry): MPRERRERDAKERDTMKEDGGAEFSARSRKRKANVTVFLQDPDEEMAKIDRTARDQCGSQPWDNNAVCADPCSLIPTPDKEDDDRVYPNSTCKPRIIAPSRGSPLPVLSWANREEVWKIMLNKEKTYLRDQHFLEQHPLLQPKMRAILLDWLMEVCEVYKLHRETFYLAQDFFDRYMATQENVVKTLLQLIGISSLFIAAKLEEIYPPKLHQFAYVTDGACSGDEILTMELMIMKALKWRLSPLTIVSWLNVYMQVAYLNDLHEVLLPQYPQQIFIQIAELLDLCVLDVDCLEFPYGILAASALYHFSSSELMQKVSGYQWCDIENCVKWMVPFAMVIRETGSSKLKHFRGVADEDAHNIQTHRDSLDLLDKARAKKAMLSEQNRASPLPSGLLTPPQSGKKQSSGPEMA
Cyclin E1, sequence (Q96SW2 whole entry): as the sequence (Q96SW2 whole entry, the tested form may be a part) above
Cyclin E1, sequence (Q16531 whole entry partner): as the sequence (Q16531 whole entry partner, the tested form may be a part) above

A word on the DC50: it is the concentration giving 50% degradation. A word on the Dmax: it is the greatest extent of degradation seen. As a reminder, the IC50 is the concentration that gives 50% inhibition. A lower IC50 goes with greater potency in that assay. `O=C1CCC(N2Cc3ccc(COC(=O)Nc4ccc(Oc5ccc(F)c(F)c5)cc4)c(OC4CCOCC4)c3C2=O)C(=O)N1` (stereo not drawn) [Example 130, [2-(2,6-dioxopiperidin-3-yl)-4-(oxan-4-yloxy)-3-oxo-2,3-dihydro-1H-isoindol-5-yl]methyl N-[4-(3,4-difluorophenoxy)phenyl]carbamate]: on GSPT1, the DC50 is greater than 14000 nM and the Dmax came out at 19%. Also, on Cyclin E1, it took 19 nM to reach half-maximal degradation (DC50), the Dmax was determined as 106% and the “Ratio of GSPT1 DC50/Cyclin E1 DC50” value is on record as greater than 738. For the same compound, in the experiment on Phospho-Rb (Ser807/811), the IC50 was 22 nM and the Emax is 119%.
For the compound `COc1c(COC(=O)Nc2ccc(Oc3c(F)cccc3F)cc2)ccc2c1C(=O)N(C1CCC(=O)NC1=O)C2` (stereo not drawn) [Example 112, [2-(2,6-dioxopiperidin-3-yl)-4-methoxy-3-oxo-2,3-dihydro-1H-isoindol-5-yl]methyl N-[4-(2,6-difluorophenoxy)phenyl]carbamate], on GSPT1, the DC50 was greater than 14000 nM and the Dmax turned out to be 26%. For the same compound, at Cyclin E1, the DC50 was 226 nM, the Dmax was found to be 105% and the “Ratio of GSPT1 DC50/Cyclin E1 DC50” value was greater than 62. Also, in the experiment on Phospho-Rb (Ser807/811), the IC50 worked out at 46 nM and the Emax stood at 115%.
On to `COc1c(COC(=O)Nc2ccc(Oc3ccc(F)c(F)c3)cc2C)ccc2c1C(=O)N(C1CCC(=O)NC1=O)C2` (stereo not drawn) [Example 38, [2-(2,6-dioxopiperidin-3-yl)-4-methoxy-3-oxo-2,3-dihydro-1H-isoindol-5-yl]methyl N-[4-(3,4-difluorophenoxy)-2-methylphenyl]carbamate], for which, on GSPT1, the DC50 was 4000 nM and the Dmax was 46%. Moreover, on Cyclin E1, it took 91 nM to reach half-maximal degradation (DC50), the Dmax stood at 107% and the “Ratio of GSPT1 DC50/Cyclin E1 DC50” value amounted to 44. In addition, in the experiment with Phospho-Rb (Ser807/811), the IC50 turned out to be 128 nM and the Emax stood at 111%.
Turning to `COc1c(COC(=O)Nc2ccc(Nc3cccc(F)c3)cc2)ccc2c1C(=O)N(C1CCC(=O)NC1=O)C2` (stereo not drawn) [Example 9, [2-(2,6-dioxopiperidin-3-yl)-4-methoxy-3-oxo-2,3-dihydro-1H-isoindol-5-yl]methyl N-{4-[(3-fluorophenyl)amino]phenyl}carbamate], at GSPT1, the DC50 was greater than 14000 nM and the Dmax was determined as 38%. In addition, on Cyclin E1, the DC50 was determined as 648 nM, the Dmax came to 86% and the “Ratio of GSPT1 DC50/Cyclin E1 DC50” value is recorded as greater than 22. In addition, in the experiment with Phospho-Rb (Ser807/811), the IC50 amounted to 3010 nM and the Emax worked out at 85%.
As to `O=C1CCC(N2Cc3ccc(COC(=O)Nc4ccc(Oc5ccc(F)c(F)c5)cc4)c(O[C@@H]4CCCOC4)c3C2=O)C(=O)N1` (stereo partly drawn) [Example 141, [2-(2,6-dioxopiperidin-3-yl)-4-[(3R)-oxan-3-yloxy]-3-oxo-2,3-dihydro-1H-isoindol-5-yl]methyl N-[4-(3,4-difluorophenoxy)phenyl]carbamate], at GSPT1, the DC50 was greater than 14000 nM and the Dmax was found to be 9%. In addition, at Cyclin E1, the DC50 was found to be 34 nM, the Dmax was found to be 112% and the “Ratio of GSPT1 DC50/Cyclin E1 DC50” value was greater than 418. In the experiment on Phospho-Rb (Ser807/811), the IC50 was 55 nM and the Emax worked out at 136%.
Regarding `O=C1CCC(N2Cc3ccc(COC(=O)Nc4ccc(Oc5ccccc5Cl)cc4)c(OC4CCC4)c3C2=O)C(=O)N1` (stereo not drawn) [Example 127, [4-cyclobutoxy-2-(2,6-dioxopiperidin-3-yl)-3-oxo-2,3-dihydro-1H-isoindol-5-yl]methyl N-[4-(2-chlorophenoxy)phenyl]carbamate], on GSPT1, the DC50 is greater than 14000 nM and the Dmax was found to be 8%. For the same compound, on Cyclin E1, the DC50 came out at 126 nM, the Dmax was found to be 105% and the “Ratio of GSPT1 DC50/Cyclin E1 DC50” value is reported as greater than 111. In the experiment with Phospho-Rb (Ser807/811), 48 nM corresponded to half-maximal inhibition (IC50) and the Emax came to 121%.
As to `COc1c(COC(=O)Nc2ccc(Oc3cc(F)c(F)c(F)c3)cc2)ccc2c1C(=O)N(C1CCC(=O)NC1=O)C2` (stereo not drawn) [Example 77, [2-(2,6-dioxopiperidin-3-yl)-4-methoxy-3-oxo-2,3-dihydro-1H-isoindol-5-yl]methyl N-[4-(3,4,5-trifluorophenoxy)phenyl]carbamate], on GSPT1, the DC50 is greater than 14000 nM and the Dmax was found to be 32%. For the same compound, on Cyclin E1, the DC50 turned out to be 284 nM, the Dmax amounted to 113% and the “Ratio of GSPT1 DC50/Cyclin E1 DC50” value is recorded as greater than 49. Moreover, in the experiment with Phospho-Rb (Ser807/811), the IC50 amounted to 163 nM and the Emax was 94%.
Regarding `O=C1CCC(N2Cc3ccc(COC(=O)Nc4ccc(Oc5ccccc5)cc4)c(O[C@@H]4CCCOC4)c3C2=O)C(=O)N1` (stereo partly drawn) [Example 142, [2-(2,6-dioxopiperidin-3-yl)-4-[(3R)-oxan-3-yloxy]-3-oxo-2,3-dihydro-1H-isoindol-5-yl]methyl N-(4-phenoxyphenyl)carbamate], on GSPT1, the DC50 was greater than 14000 nM and the Dmax is 4%. On Cyclin E1, the DC50 amounted to 22 nM, the Dmax is 108% and the “Ratio of GSPT1 DC50/Cyclin E1 DC50” value is greater than 635. Further, in the experiment on Phospho-Rb (Ser807/811), it took 145 nM to reach half-maximal inhibition (IC50) and the Emax was determined as 139%.
With `COc1c(COC(=O)Nc2ccc(Oc3ccccc3F)cc2)ccc2c1C(=O)N(C1CCC(=O)NC1=O)C2` (stereo not drawn) [Example 79, [2-(2,6-dioxopiperidin-3-yl)-4-methoxy-3-oxo-2,3-dihydro-1H-isoindol-5-yl]methyl N-[4-(2-fluorophenoxy)phenyl]carbamate], on GSPT1, the DC50 was greater than 14000 nM and the Dmax is 31%. On Cyclin E1, it took 375 nM to reach half-maximal degradation (DC50), the Dmax stood at 112% and the “Ratio of GSPT1 DC50/Cyclin E1 DC50” value is listed as greater than 37. Also, in the experiment on Phospho-Rb (Ser807/811), the IC50 was determined as 128 nM and the Emax came out at 120%.
Regarding `COc1cc(Oc2ccc(F)c(C)c2)ccc1NC(=O)OCc1ccc2c(c1OC)C(=O)N(C1CCC(=O)NC1=O)C2` (stereo not drawn) [Example 97, [2-(2,6-dioxopiperidin-3-yl)-4-methoxy-3-oxo-2,3-dihydro-1H-isoindol-5-yl]methyl N-[4-(4-fluoro-3-methylphenoxy)-2-methoxyphenyl]carbamate], at GSPT1, the DC50 was greater than 14000 nM and the Dmax was 24%. Also, on Cyclin E1, it took 357 nM to reach half-maximal degradation (DC50), the Dmax was 106% and the “Ratio of GSPT1 DC50/Cyclin E1 DC50” value is listed as greater than 39. For the same compound, in the experiment on Phospho-Rb (Ser807/811), the IC50 was found to be 326 nM and the Emax was found to be 101%.
In the case of `COc1c(COC(=O)Nc2ccc(Oc3ccc(F)c(F)c3)cc2Cl)ccc2c1C(=O)N(C1CCC(=O)NC1=O)C2` (stereo not drawn) [Example 46, [2-(2,6-dioxopiperidin-3-yl)-4-methoxy-3-oxo-2,3-dihydro-1H-isoindol-5-yl]methyl N-[2-chloro-4-(3,4-difluorophenoxy)phenyl]carbamate], at GSPT1, the half-maximal degradation concentration (DC50) is greater than 14000 nM and the Dmax stood at 42%. On Cyclin E1, the DC50 worked out at 357 nM, the Dmax was 105% and the “Ratio of GSPT1 DC50/Cyclin E1 DC50” value was greater than 39. Also, in the experiment on Phospho-Rb (Ser807/811), the IC50 was determined as 376 nM and the Emax is 102%.
Consider `COc1c(COC(=O)Nc2ccc(Oc3ccccc3C(F)F)cc2F)ccc2c1C(=O)N(C1CCC(=O)NC1=O)C2` (stereo not drawn) [Example 86, [2-(2,6-dioxopiperidin-3-yl)-4-methoxy-3-oxo-2,3-dihydro-1H-isoindol-5-yl]methyl N-{4-[2-(difluoromethyl)phenoxy]-2-fluorophenyl}carbamate], for which, on GSPT1, the DC50 was greater than 14000 nM and the Dmax amounted to 33%. Besides, at Cyclin E1, the DC50 was determined as 205 nM, the Dmax came out at 107% and the “Ratio of GSPT1 DC50/Cyclin E1 DC50” value was greater than 68. In addition, in the experiment on Phospho-Rb (Ser807/811), the IC50 came to 176 nM and the Emax was found to be 112%.
As to `O=C1CCC(N2Cc3ccc(COC(=O)Nc4ccc(Oc5ccc(F)cc5F)cc4F)c(O[C@@H]4CCCOC4)c3C2=O)C(=O)N1` (stereo partly drawn) [Example 148, [2-(2,6-dioxopiperidin-3-yl)-4-[(3R)-oxan-3-yloxy]-3-oxo-2,3-dihydro-1H-isoindol-5-yl]methyl N-[4-(2,4-difluorophenoxy)-2-fluorophenyl]carbamate], at GSPT1, the DC50 is greater than 14000 nM and the Dmax was 10%. In addition, at Cyclin E1, the DC50 was found to be 33 nM, the Dmax turned out to be 110% and the “Ratio of GSPT1 DC50/Cyclin E1 DC50” value is listed as greater than 423. Moreover, in the experiment on Phospho-Rb (Ser807/811), the IC50 is 75 nM and the Emax was determined as 136%.
Consider `CC(C)Oc1c(COC(=O)Nc2ccc(Oc3ccc(F)c(F)c3)cc2)ccc2c1C(=O)N(C1CCC(=O)NC1=O)C2` (stereo not drawn) [Example 56, [2-(2,6-dioxopiperidin-3-yl)-3-oxo-4-(propan-2-yloxy)-2,3-dihydro-1H-isoindol-5-yl]methyl N-[4-(3,4-difluorophenoxy)phenyl]carbamate], for which, on GSPT1, the DC50 was greater than 14000 nM and the Dmax turned out to be 19%. At Cyclin E1, half-maximal degradation (DC50) was put at 159 nM, the Dmax was 106% and the “Ratio of GSPT1 DC50/Cyclin E1 DC50” value is on record as greater than 88. For the same compound, in the experiment with Phospho-Rb (Ser807/811), the IC50 was 113 nM and the Emax amounted to 127%.
As for `COc1cccc(Oc2ccc(NC(=O)OCc3ccc4c(c3OC)C(=O)N(C3CCC(=O)NC3=O)C4)cc2)c1` (stereo not drawn) [Example 32, [2-(2,6-dioxopiperidin-3-yl)-4-methoxy-3-oxo-2,3-dihydro-1H-isoindol-5-yl]methyl N-[4-(3-methoxyphenoxy)phenyl]carbamate], on GSPT1, the DC50 is greater than 14000 nM and the Dmax came to 24%. For the same compound, on Cyclin E1, it took 67 nM to reach half-maximal degradation (DC50), the Dmax worked out at 96% and the “Ratio of GSPT1 DC50/Cyclin E1 DC50” value was greater than 208. Besides, in the experiment with Phospho-Rb (Ser807/811), 498 nM corresponded to half-maximal inhibition (IC50) and the Emax came to 83%.
